# Source: patent US11066412B2, “Substituted pyrrolo[2,1-a]phthalazines and benzo[g]pyrrolo[2,1-a]phthalazines for the treatment of cancer” (Academia Sinica, priority 2017, dated 2021)
# Where two headings read alike, the source gives them in different places.
# Legend:
# [1] = test system: human lymphoblastic leukemia cell line (CCRF-CEM); assay: in vitro cytotoxicity, PrestoBlue assay; type: cell-based; settings: read-out: IC50 CCRF-CEM
# Procedure: (§1) All representative compounds of Formulae (I-A) and (I-B) were first evaluated for their in vitro cytotoxicity to human lymphoblastic leukemia cell line (CCRF-CEM) and its vinblastine-resistant sub-cell line (CCRF-CEM/VBL) (see Table 1).
# (§2) After a 72-hr incubation in various concentrations of the newly synthesized compounds, the cytotoxic effects of them to all cell lines were determined by the PrestoBlue®(Invitrogen) assay using a microplate spectrophotometer. Briefly, at the end of treatment, an aliquot of PrestoBlue® solution was added and then cells were incubated at 37° C. for 1-2 hr. The absorbance at 570 and 600 nm was measured with a microplate reader. […] The ICso is defined by the concentration required to inhibit tumor cell growth by 50%. Data represent the mean±STDEV of three to six independent experiments for each compound.
# colon cancer HCT-116 = assay: in vitro cytotoxicity, PrestoBlue assay; type: cell-based, human; settings: Table 2
# Procedure: as §1, §2
# [2] = test system: non-small cell lung cancer H460; assay: in vitro cytotoxicity, PrestoBlue assay; type: cell-based, human; settings: Table 2
# Procedure: as §1, §2
# pancreatic cancer PacaS1 = assay: in vitro cytotoxicity, PrestoBlue assay; type: cell-based, human; settings: Table 2
# Procedure: as §1, §2
# [3] = test system: vinblastine-resistant sub-cell line (CCRF-CEM/VBL); assay: in vitro cytotoxicity, PrestoBlue assay; type: cell-based, human; settings: for IC50: read-out: IC50 CEM/VBL; for resistance factor (IC50 CEM/VBL vs IC50 of the parent cell line): number in brackets
# Procedure: as §1, §2
# [4] = test system: small cell lung cancer H526; assay: in vitro cytotoxicity, PrestoBlue assay; type: cell-based, human
# H1417 = assay: in vitro cytotoxicity to SCLC cells; type: cell-based, human; settings: Table 3
# Procedure: as §2
# H146 = assay: in vitro cytotoxicity to SCLC cells; type: cell-based, human; settings: Table 3
# Procedure: as §2
# H211 = assay: in vitro cytotoxicity to SCLC cells; type: cell-based, human; settings: Table 3
# Procedure: as §2
# H82 = assay: in vitro cytotoxicity to SCLC cells; type: cell-based, human; settings: Table 3
# Procedure: as §2
# pEGFP-N1 plasmid DNA = assay: DNA cross-linking, alkaline agarose gel electrophoresis; type: biochemical; settings: 1-20 μM, 37° C., 2 hrs; FIG. 1
# Procedure: In the present example, BO-2590, BO-2577 (Formula I-A) and BO-2698, BO-2755, BO-2762 and BO-2768 (Formula I-B) were tested for their DNA crosslinking activity, in which the cross-linking was analyzed by alkaline agarose gel electrophoresis. In brief, purified pEGFP-N1 plasmid DNA (1,500 ng) was mixed with various concentrations (1-20 μM) of the tested compounds in 40 μL binding buffer (3 mM sodium chloride/1 mM sodium phosphate, pH 7.4, and 1 mM EDTA). The reaction mixture was incubated at 37° C. for 2 hrs. At the end of reaction, the plasmid DNA was linearized by digestion with BamHI and followed by precipitation with ethanol. The DNA pellets were dissolved and denatured in alkaline buffer (0.5 N NaOH-10mM EDTA). An aliquot of 20 μL of DNA solution (1,000 ng) was mixed with 4 μL of 6× alkaline loading dye and then electrophoretically resolved on a 0.8% alkaline agarose gel with NaOH-EDTA buffer at 4° C. The electrophoresis was carried out at 18V for 22 h. After staining the gels with an ethidium bromide solution, the DNA was visualized under UV light. Results are illustrated in FIG. 1.
# [5] = test system: human SCLC H526 xenografts; assay: tumor growth in xenograft-bearing nude mice; type: in vivo; settings: micelle formulation (Kolliphor/TWEEN 80/PEG400/ethanol/D5W); BO-2768 at 20 mg/kg twice daily; FIG. 12, panel A
# Procedure: Athymic nude mice bearing the nu/nu gene were obtained from the National Laboratory Animal Center (Taipei, Taiwan). Male nude mice (6 weeks or older weighing 20-24 g or more) were used for all human tumor xenografts. The tested compounds were intravenously administered through tail vein. Tumor volume was determined by measuring the length x width x height (or width) with calipers. […] For tumor-bearing nude mice during the course of the experiment, the % body weight changes refer to: (the total weight on reading day/the total weight on day treatment started)×100.
# In all experiments, the tumor cells were subcutaneously implanted in nude mice, and the BO-2590L was administered via tail vein when the tumor size reaching approximate 100 mm^3. […]
# To confirm the therapeutic activity of BO-2590L, comparative experiments carried out by known chemotherapeutic agents, such as vatanalib and cisplatin, were also performed. Briefly, the H526 xenograft-bearing mice were divided into 4 groups which were treated with vehicle, BO-2590L (10 mg/kg, QD×9), vatalanib (100 mg/kg, QD×9), and cisplatin (4 mg/kg, Q2D×3), respectively. Results are illustrated in FIG. 11.
# Results are illustrated in FIGS. 12 and 13.
# [6] = body weight changes of xenograft-bearing nude mice; type: in vivo; settings: H526 xenograft mice, micelle formulation; FIG. 12, panel B
# Procedure: Athymic nude mice bearing the nu/nu gene were obtained from the National Laboratory Animal Center (Taipei, Taiwan). Male nude mice (6 weeks or older weighing 20-24 g or more) were used for all human tumor xenografts. The tested compounds were intravenously administered through tail vein. Tumor volume was determined by measuring the length x width x height (or width) with calipers. The vehicle used for the tested compounds was normal saline (0.9% NaCl isotonic solution). For tumor-bearing nude mice during the course of the experiment, the % body weight changes refer to: (the total weight on reading day/the total weight on day treatment started)×100.
# [7] = 72-hr incubation, mean ± STDEV of three to six experiments
SMILES,"IC50 [1, 7] [nM]",IC50 (colon cancer HCT-116) [nM],IC50 [2] [nM],IC50 Paca SI (pancreatic cancer PacaS1) [nM],"IC50 [3, 7] [nM]",resistance factor (IC50 CEM/VBL vs IC50 of the parent cell line) [3] [×],"IC50 ([4]; Table 2, read-out: IC50 H526) [nM]","IC50 ([4]; Table 3, read-out: IC50 H526) [nM]",IC50 (H1417) [nM],IC50 (H146) [nM],IC50 (H211) [nM],IC50 (H82) [nM],further results
"Cc1c(CO)c(CO)c2c3ccccc3c(N3CCOCC3)nn12 [BO-2571, (3-Methyl-6-morpholinopyrrolo[2,1-α]phthalazine-1,2-diyl)dimethanol]",760 ± 30,1670 ± 180,2640 ± 520,2160 ± 90,560 ± 60,0.74,100 ± 10,,,,,,
"CCNC(=O)OCc1c(COC(=O)NCC)c2c3ccccc3c(N3CCOCC3)nn2c1C [BO-2573, (3-Methyl-6-morpholinopyrrolo[2,1-a]phthalazine-1,2-diyl)bis(methylene)bis(ethylcarbamate)]",690 ± 220,1700 ± 210,2480 ± 730,17230 ± 3480,450 ± 30,0.65,210 ± 30,,,,,,
COc1ccc(-c2c(CO)c(CO)c3c4ccccc4c(N4CCOCC4)nn23)cc1 [BO-2629],6630 ± 1740,5200 ± 430,18700 ± 1810,36630 ± 1040,5750 ± 620,0.86,1950 ± 260,,,,,,
"Cc1c(CO)c(CO)c2c3ccccc3c(N3CCCC3)nn12 [BO-2686, (3-Methyl-6-(pyrrolidin-1-yl)pyrrolo[2,1-a]phthalazine-1,2 diyl)dimethanol]",,,,11730 ± 1160,,0.51,,,,,,,"IC50 ([1]; Homo sapiens, CCRF-CEM, 72 h): 920 ± 70 nM; IC50 (colon cancer HCT-116; Homo sapiens, HCT-116): 3960 ± 60 nM; IC50 ([2]; Homo sapiens, NCI-H460): 3870 ± 730 nM; IC50 ([3]; Homo sapiens, CCRF-CEM, 72 h): 470 ± 50 nM; IC50 ([4]; Homo sapiens, NCI-H526, read-out: IC50 H526): 300 ± 40 nM; melting point: 160 to 162 °C"
Cc1c(CO)c(CO)c2c3cc4ccccc4cc3c(N3CCOCC3)nn12 [BO-2698],380 ± 50,1130 ± 20,1180 ± 100,880 ± 260,330 ± 30,0.86,40 ± 10,90 ± 60,370 ± 10,1020 ± 160,220 ± 70,400 ± 160,formation of DNA interstrand crosslinks (pEGFP-N1 plasmid DNA): induced DNA interstrand crosslinks
"CCNC(=O)OCc1c(COC(=O)NCC)c2c3ccccc3c(N3CCCC3)nn2c1C [BO-2716, (3-Methyl-6-(pyrrolidin-1-yl)pyrrolo[2,1-a]phthalazine-1,2-diyl)-bis(methylene) bis(ethylcarbamate)]",,,,,,1.47,,,,,,,"IC50 ([1]; Homo sapiens, CCRF-CEM, 72 h): 1420 ± 90 nM; IC50 ([3]; Homo sapiens, CCRF-CEM, 72 h): 2100 ± 90 nM; melting point: 140 to 142 °C"
Cc1c(CO)c(CO)c2c3cc4ccccc4cc3c(N3CCCCC3)nn12 [BO-2755],800 ± 90,4130 ± 270,3030 ± 480,10010 ± 1640,1010 ± 110,1.26,120 ± 40,220 ± 60,1370 ± 30,2650 ± 1390,800 ± 330,1480 ± 660,formation of DNA interstrand crosslinks (pEGFP-N1 plasmid DNA): induced DNA interstrand crosslinks
"Cc1c(CO)c(CO)c2c3cc4ccccc4cc3c(N3CCCC3)nn12 [BO-2762, (3-Methyl-6-(pyrrolidin-1-yl)benzo[g]pyrrolo[2,1-α]phthalazine-1,2-diyl)dimethanol]",190 ± 10,930 ± 120,780 ± 240,1040 ± 80,140 ± 20,0.74,50 ± 10,30 ± 10,600 ± 340,1010 ± 240,200 ± 120,410 ± 150,formation of DNA interstrand crosslinks (pEGFP-N1 plasmid DNA): induced DNA interstrand crosslinks
"CCNC(=O)OCc1c(COC(=O)NCC)c2c3cc4ccccc4cc3c(N3CCCC3)nn2c1C [BO-2763, (3-Methyl-6-(pyrrolidin-1-yl)benzo[g]pyrrolo[2,1-α]phthalazine-1,2-diyl)-bis(methylene) bis(ethylcarbamate)]",420 ± 70,,,,250 ± 60,0.59,,180 ± 60,1150 ± 150,2160 ± 500,680 ± 590,1580 ± 1370,
"CCNC(=O)OCc1c(COC(=O)NCC)c2c3cc4ccccc4cc3c(N(C)C)nn2c1C [BO-2772, (6-(Dimethylamino)-3-methylbenzo[g]pyrrolo[2,1-α]phthalazine-1,2-diyl)-bis(methylene) bis(ethylcarbamate)]",138 ± 8,,,,99 ± 6,0.71,,270 ± 310,1010 ± 490,1670 ± 240,320 ± 200,520 ± 160,
CCNC(=O)OCc1c(COC(=O)NCC)c2c3ccccc3c(N(C)C)nn2c1C [BO-2786],730 ± 50,2450 ± 650,3470 ± 470,8010 ± 1400,550 ± 60,0.75,570 ± 90,,,,,,
Cc1c(CO)c(CO)c2c3cc4ccccc4cc3c(N3CCC(N4CCCCC4)CC3)nn12 [BO-2792],17 ± 9,,,,25 ± 5,1.51,,3 ± 3,250 ± 50,200 ± 150,20 ± 20,40 ± 10,tumor size [5]: as effective as irinotecan and cisplatin in reducing the tumor size; deleterious effects on the bodyweight of the test animals [6]: none
CCNC(=O)OCc1c(COC(=O)NCC)c2c3cc4ccccc4cc3c(N3CCC(N4CCCCC4)CC3)nn2c1C [BO-2793],57 ± 4,,,,104 ± 28,1.82,,10 ± 3,130 ± 90,310 ± 210,60 ± 20,90 ± 40,
"CCc1c2c(nc3ccc(OC(=O)N4CCC(N5CCCCC5)CC4)cc13)-c1cc3c(c(=O)n1C2)COC(=O)[C@]3(O)CC [Irinotecan, reference compound]",,,,,,,,,,,,,"IC50 ([4]; Homo sapiens, NCI-H526, Table 3, read-out: IC50 H526): 590 ± 300 nM; IC50 (H1417; Homo sapiens, NCI-H1417): 9790 ± 840 nM; IC50 (H146; Homo sapiens, NCI-H146): 11500 ± 6530 nM; IC50 (H211; Homo sapiens, NCI-H211): 8810 ± 460 nM; IC50 (H82; Homo sapiens, NCI-H82): 2260 ± 10 nM; tumor size [5]: slowly increased in size; deleterious effects on the bodyweight of the test animals [6]: none"
